According to ChEMBL document CHEMBL1799912, “Benzodihydrofurans from Cyperus teneriffae” (J Nat Prod, 2011):
Calls of active or inactive are those of the source. The rule behind the calls is not given here.

Experiment: Antiestrogenic activity in human MCF7/BUS cells assessed as inhibition of 17beta-estradiol-induced cell proliferation at 10 uM after 6 days by E-Screen test
Format: functional, cell-based

Structure (SMILES)	Activity
COc1cc(O)c(CC=C(C)C)c(O)c1C(C)=O	inactive
C=C(C)[C@@H]1Cc2c(c(OC)c3occ(C)c3c2OC)O1	inactive
O=C1CC(c2ccc(O)c(O)c2)Oc2cc(O)cc(O)c21 (configuration not stated)	inactive
C=C(C)[C@@H]1Cc2c(c(OC)c(O)c(C(C)=O)c2OC)O1	inactive
COc1cc(OC)c2c(c1)O/C(=C\c1ccc(OC)c(O)c1)C2=O	inactive
COc1cc(OC)c2c(c1)O/C(=C\c1ccc(OC)c(OC)c1)C2=O	inactive
COc1ccc(-c2oc3cc(O)cc(O)c3c(=O)c2O)cc1O	inactive
